For three compounds, inhibition and fold change (FC) results are on record in ChEMBL document CHEMBL5653631, “A Potent and Selective ULK1 Inhibitor Suppresses Autophagy and Sensitizes Cancer Cells to Nutrient Stress” (iScience, 2018).

Broadly, the inhibition is the share of the control response that was lost under treatment.

Molecules are shown by their SMILES.

Test [1] deals with Cyclin-dependent kinase-like 3 (Homo sapiens) (UniProt Q8IVW4). As to the kind of experiment: Inhibition of human recombinant CDKL3 at 40 nM in presence of ATP by radiometric assay relative to control.
Sequence of Cyclin-dependent kinase-like 3 (Homo sapiens) (Q8IVW4 whole entry, looked up): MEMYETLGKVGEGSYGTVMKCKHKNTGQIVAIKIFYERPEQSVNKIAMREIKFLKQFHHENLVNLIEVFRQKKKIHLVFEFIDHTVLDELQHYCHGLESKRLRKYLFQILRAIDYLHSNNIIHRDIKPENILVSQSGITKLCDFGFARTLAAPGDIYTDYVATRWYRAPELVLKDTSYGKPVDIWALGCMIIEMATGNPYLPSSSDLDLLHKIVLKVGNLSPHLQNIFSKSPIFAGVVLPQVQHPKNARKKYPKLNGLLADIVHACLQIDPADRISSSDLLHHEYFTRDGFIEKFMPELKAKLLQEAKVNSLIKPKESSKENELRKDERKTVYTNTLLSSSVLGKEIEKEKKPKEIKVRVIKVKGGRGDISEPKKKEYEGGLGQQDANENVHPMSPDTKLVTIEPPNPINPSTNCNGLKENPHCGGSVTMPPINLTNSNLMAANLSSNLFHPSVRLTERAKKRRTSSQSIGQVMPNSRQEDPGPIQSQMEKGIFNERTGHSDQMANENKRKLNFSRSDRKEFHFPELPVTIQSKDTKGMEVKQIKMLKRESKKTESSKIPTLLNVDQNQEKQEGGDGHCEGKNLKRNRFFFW
Another test is filed under the species Homo sapiens. As to the kind of experiment: Inhibition of human recombinant p70S6K at 40 nM related to control ULK1.
The target in test [2] is STE20-like serine/threonine-protein kinase (Homo sapiens) (UniProt Q9H2G2). As to the kind of experiment: Inhibition of human recombinant SLK at 40 nM related to control ULK1.
Sequence of STE20-like serine/threonine-protein kinase (Homo sapiens) (Q9H2G2 whole entry, looked up): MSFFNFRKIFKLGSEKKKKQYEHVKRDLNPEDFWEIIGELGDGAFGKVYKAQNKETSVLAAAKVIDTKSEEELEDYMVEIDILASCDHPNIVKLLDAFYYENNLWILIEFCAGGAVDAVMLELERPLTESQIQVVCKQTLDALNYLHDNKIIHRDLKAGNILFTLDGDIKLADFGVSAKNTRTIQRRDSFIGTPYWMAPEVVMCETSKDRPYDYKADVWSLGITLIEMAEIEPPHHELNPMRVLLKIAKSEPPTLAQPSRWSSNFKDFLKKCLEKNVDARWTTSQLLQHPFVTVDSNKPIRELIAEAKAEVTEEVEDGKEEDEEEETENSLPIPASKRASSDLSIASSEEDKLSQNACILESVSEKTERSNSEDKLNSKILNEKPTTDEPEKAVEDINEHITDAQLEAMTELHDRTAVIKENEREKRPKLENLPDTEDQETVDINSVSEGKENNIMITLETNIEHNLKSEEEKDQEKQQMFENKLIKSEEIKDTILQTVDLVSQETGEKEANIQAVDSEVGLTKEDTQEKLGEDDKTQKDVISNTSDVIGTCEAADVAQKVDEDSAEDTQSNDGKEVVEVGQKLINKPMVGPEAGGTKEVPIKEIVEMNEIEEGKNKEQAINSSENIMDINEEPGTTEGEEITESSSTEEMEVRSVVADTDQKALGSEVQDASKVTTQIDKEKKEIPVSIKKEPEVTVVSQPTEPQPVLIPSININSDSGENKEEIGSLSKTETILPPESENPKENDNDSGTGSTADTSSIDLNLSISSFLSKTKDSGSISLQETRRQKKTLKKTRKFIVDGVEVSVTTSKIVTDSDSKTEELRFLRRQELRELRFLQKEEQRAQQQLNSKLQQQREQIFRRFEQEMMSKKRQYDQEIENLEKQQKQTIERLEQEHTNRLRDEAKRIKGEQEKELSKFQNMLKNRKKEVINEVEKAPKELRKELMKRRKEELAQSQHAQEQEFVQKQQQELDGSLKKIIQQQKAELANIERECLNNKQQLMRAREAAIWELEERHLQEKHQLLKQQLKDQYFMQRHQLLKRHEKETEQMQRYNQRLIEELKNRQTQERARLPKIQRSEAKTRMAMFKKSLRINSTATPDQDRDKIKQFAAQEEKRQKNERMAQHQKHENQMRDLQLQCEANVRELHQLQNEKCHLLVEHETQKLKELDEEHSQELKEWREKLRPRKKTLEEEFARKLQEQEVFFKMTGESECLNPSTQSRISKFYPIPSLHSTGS
The target of test [3] is T1, Serine/threonine-protein kinase Nek2 (Homo sapiens) (UniProt P51955).
T1 sequence (whole entry): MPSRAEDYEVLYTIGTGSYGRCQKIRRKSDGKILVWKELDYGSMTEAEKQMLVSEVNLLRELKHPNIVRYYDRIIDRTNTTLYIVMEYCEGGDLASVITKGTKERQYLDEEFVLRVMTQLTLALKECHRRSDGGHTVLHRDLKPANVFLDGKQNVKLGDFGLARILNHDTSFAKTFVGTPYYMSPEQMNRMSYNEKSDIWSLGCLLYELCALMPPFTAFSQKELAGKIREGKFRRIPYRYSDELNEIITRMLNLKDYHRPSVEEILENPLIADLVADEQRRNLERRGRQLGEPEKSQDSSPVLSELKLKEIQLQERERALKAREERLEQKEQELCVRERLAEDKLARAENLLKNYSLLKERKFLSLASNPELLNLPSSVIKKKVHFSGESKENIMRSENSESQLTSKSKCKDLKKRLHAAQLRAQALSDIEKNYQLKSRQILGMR
Kind of test: Inhibition of human recombinant NEK2 at 500 nM in presence of ATP by radiometric assay relative to control.

For test [4], the target named is Glycogen synthase kinase-3 alpha (Homo sapiens) (UniProt P49840). As to the kind of experiment: Inhibition of human recombinant GSK3A at 500 nM related to control ULK1.
Sequence of Glycogen synthase kinase-3 alpha (Homo sapiens) (P49840 2-483 limits assumed): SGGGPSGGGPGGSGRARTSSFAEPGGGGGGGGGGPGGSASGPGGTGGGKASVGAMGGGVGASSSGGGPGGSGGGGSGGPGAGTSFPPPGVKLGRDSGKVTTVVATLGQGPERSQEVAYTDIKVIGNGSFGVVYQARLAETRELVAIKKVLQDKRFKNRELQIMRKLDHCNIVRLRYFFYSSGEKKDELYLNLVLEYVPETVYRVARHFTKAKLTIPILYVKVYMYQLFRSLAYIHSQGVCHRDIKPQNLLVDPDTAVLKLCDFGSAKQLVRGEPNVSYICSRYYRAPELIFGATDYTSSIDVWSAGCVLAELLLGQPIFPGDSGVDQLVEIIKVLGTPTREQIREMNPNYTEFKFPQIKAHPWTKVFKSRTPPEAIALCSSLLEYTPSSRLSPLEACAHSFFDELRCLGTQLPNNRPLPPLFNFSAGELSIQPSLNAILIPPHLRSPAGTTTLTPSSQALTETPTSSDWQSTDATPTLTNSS
The target in test [5] is Serine/threonine-protein kinase Nek4 (Homo sapiens) (UniProt P51957). Kind of test: Inhibition of human recombinant NEK4 at 500 nM related to control ULK1.
Sequence of Serine/threonine-protein kinase Nek4 (Homo sapiens) (P51957 whole entry, looked up): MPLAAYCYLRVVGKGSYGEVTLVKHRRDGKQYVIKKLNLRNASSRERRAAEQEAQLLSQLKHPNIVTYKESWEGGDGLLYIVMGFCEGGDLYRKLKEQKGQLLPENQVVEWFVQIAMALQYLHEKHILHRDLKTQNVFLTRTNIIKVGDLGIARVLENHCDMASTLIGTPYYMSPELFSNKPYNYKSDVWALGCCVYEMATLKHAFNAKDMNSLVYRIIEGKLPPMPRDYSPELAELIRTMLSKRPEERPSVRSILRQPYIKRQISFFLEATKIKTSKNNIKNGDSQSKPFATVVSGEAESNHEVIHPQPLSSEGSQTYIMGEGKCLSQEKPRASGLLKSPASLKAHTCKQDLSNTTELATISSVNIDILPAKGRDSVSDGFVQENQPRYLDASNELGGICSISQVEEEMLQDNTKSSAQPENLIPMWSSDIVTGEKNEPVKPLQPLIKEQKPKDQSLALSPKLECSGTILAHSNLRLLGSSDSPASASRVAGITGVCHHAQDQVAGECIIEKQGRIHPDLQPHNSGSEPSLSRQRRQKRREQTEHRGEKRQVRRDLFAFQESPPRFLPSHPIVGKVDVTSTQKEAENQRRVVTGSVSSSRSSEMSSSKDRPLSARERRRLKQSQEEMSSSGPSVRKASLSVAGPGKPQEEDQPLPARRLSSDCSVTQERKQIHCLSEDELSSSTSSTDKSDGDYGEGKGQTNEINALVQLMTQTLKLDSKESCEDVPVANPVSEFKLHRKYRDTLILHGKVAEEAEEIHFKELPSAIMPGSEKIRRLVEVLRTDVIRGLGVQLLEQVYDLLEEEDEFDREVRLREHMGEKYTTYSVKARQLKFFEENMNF
The target in test [6] is Serine/threonine-protein kinase pim-3 (Homo sapiens) (UniProt Q86V86). As to the kind of experiment: Inhibition of human recombinant PIM3 at 500 nM related to control ULK1.
For test [7], the target named is T2, SNF-related serine/threonine-protein kinase (Homo sapiens) (UniProt Q9NRH2).
T2 sequence (whole entry): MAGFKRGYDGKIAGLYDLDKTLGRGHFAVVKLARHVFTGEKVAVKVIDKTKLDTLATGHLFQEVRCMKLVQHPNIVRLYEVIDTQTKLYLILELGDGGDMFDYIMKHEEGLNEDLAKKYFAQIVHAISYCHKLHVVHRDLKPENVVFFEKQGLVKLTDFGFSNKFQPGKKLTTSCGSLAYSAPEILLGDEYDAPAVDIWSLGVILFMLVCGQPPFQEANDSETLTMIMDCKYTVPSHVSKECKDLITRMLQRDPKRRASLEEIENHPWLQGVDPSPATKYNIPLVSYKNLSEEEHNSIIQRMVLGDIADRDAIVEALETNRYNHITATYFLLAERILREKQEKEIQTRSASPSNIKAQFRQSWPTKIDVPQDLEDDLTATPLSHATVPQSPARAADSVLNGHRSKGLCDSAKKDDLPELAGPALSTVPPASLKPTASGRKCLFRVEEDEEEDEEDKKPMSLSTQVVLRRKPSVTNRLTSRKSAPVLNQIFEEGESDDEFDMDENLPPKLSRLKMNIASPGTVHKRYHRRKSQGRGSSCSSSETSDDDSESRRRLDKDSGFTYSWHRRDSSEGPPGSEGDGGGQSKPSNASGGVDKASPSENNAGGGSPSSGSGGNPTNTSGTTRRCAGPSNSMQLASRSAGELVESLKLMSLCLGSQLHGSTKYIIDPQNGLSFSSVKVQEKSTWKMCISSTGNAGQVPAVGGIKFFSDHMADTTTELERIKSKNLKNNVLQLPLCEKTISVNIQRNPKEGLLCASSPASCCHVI
Kind of test: Inhibition of human recombinant SNRK at 500 nM related to control ULK1.

The target of test [8] is Mitogen-activated protein kinase 11 (Homo sapiens) (UniProt Q15759). As to the kind of experiment: Inhibition of human recombinant p38beta at 15 nM in presence of ATP by radiometric assay relative to control.
The target of test [9] is Casein kinase I isoform gamma-3 (Homo sapiens) (UniProt Q9Y6M4). Kind of test: Inhibition of human recombinant CK1g3 at 15 nM related to control ULK1.
Sequence of Casein kinase I isoform gamma-3 (Homo sapiens) (Q9Y6M4 whole entry, looked up, canonical isoform): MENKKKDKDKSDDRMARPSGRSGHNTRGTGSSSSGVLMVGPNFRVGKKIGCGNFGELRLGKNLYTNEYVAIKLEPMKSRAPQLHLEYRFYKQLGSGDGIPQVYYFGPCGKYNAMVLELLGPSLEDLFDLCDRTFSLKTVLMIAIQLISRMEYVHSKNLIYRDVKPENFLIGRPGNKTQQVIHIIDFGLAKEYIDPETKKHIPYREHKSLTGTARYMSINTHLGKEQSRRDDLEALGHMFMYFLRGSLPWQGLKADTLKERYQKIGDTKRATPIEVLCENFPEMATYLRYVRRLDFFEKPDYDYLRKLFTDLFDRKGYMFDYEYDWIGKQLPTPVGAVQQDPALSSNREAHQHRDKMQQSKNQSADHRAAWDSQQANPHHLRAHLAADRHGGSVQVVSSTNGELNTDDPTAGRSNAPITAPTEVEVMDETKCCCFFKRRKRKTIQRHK
Test [10] deals with T3, Inhibitor of nuclear factor kappa-B kinase subunit epsilon (Homo sapiens) (UniProt Q14164).
T3 sequence (whole entry): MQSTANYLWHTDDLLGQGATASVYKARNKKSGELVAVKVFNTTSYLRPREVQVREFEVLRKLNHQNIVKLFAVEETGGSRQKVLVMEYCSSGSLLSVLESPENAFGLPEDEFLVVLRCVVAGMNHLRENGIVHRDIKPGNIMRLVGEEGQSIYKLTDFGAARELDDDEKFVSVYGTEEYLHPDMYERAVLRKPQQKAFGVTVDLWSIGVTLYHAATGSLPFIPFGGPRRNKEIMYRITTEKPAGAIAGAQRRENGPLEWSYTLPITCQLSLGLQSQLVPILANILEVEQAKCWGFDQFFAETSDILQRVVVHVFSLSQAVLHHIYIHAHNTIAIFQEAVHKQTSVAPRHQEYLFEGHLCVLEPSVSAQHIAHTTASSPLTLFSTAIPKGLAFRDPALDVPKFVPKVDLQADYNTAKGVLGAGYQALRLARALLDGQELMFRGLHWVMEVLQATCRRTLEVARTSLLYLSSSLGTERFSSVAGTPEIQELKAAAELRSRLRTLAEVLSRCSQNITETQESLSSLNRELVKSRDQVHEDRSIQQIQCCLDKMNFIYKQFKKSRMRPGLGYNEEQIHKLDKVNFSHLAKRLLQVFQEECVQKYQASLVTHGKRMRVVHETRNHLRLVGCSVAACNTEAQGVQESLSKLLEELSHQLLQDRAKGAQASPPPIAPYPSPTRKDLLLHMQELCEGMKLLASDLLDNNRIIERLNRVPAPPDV
As to the kind of experiment: Inhibition of human recombinant IKKe at 15 nM related to control ULK1.

In test [11] the target is Ribosomal protein S6 kinase alpha-4 (Homo sapiens) (UniProt O75676). Kind of test: Inhibition of human recombinant MSK2 at 15 nM related to control ULK1.
Sequence of Ribosomal protein S6 kinase alpha-4 (Homo sapiens) (O75676 whole entry, looked up): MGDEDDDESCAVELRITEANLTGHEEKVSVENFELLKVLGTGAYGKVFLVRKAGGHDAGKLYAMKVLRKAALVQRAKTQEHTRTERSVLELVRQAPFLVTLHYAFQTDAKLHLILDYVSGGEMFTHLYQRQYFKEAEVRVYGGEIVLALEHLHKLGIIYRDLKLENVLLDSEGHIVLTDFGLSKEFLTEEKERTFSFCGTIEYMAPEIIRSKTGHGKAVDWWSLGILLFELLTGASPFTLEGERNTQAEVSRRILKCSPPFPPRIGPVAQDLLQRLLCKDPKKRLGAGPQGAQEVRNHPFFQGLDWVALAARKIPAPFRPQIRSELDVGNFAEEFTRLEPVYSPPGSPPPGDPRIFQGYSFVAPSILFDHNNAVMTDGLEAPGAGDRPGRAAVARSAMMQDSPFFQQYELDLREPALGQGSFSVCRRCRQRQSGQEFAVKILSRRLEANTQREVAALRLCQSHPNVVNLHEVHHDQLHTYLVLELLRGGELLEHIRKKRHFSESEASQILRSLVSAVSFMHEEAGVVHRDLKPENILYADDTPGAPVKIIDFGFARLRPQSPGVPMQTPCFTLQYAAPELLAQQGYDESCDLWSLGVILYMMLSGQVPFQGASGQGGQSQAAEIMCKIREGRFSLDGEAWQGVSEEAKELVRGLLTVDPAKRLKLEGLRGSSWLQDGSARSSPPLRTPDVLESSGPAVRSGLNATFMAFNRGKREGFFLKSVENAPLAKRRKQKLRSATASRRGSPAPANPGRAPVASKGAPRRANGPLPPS

As to `O=C(N[C@@H](C1CC1)C(F)(F)F)c1cc(-c2cnn3cc(-c4ccc(F)cc4)cnc23)cs1`, the inhibition in test [1] came to 39%. Besides, the fold change (FC) amounted to 0.03 in the test listed under Homo sapiens and 0 in test [2].

With `CNC(=O)c1ccccc1Oc1nc(Nc2cc(OC)c(OC)c(OC)c2)ncc1Br`, the inhibition in test [3] amounted to 0%. Besides, the fold change (FC) in [4] turned out to be 0; in [5] it was 0.31; in test [6] it was 0; in [7] it was 0.

Regarding `CC(C)[C@H](NC(=O)c1cc(-c2cnn3cc(-c4ccc(OCCN5CCCCC5)cc4)cnc23)cs1)C(F)(F)F`, the inhibition in test [8] turned out to be 1%. The fold change (FC) in [9] was determined as 0.03; in [10] it was 0.85; in [11], 0.
